# According to patent US11608341B2, “Substituted tetrahydropyrazolo[3,4-d]pyrimidines and tetrahydropyrazolo[4,3-d]pyrimidines as C5A receptor modulators” (Idorsia Pharmaceuticals Ltd., priority 2018, dated 2023):
# Biological target: T1, C5AR1 (Homo sapiens, UniProt P21730)
# T1 construct: host or cells: CHO-K1
# T1 sequence (P21730 1-350): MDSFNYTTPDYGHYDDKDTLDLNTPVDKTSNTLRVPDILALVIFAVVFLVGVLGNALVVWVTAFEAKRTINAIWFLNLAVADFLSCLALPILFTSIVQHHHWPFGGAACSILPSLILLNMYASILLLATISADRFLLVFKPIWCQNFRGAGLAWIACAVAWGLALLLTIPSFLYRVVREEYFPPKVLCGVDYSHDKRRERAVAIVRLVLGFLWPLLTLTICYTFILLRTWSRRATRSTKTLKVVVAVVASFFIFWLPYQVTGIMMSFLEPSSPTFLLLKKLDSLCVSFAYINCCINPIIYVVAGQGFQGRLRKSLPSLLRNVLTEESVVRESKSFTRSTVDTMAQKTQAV
# Assay: In vitro assay: antagonism of C5a-induced beta-arrestin recruitment (PathHunter) in CHO-K1 C5AR1 beta-arrestin cell line
# Type: cell-based
# Conditions: antagonistic activity, 1-10 nM C5a agonist, geometric mean where several measurements, read-out: C5aR IC50
# Procedure: 5 μl Antagonist at 6-fold end concentration or DMSO control is added to assay medium and subsequently 5 μl 1-10 nM C5a agonist at 6 fold end concentration. Cells are centrifuged for 1 min at 1000 rpm and incubated for 1.5 hour in at 37° C. Plates are equilibrated at room temperature for several minutes before adding 12 μl/well Detection Reagent (PathHunter Detection Kit, DiscoverX, Cat #93-0001). Plates are centrifuged for 1 min at 1000 rpm and incubated for 45 minutes at RT before being measured on a Fluostar Optima, BMG Labtech. IC50 values are calculated from a serial dilution range of antagonist using inhouse software and given in nmol/l.
# The calculated IC50 values may fluctuate depending on the daily cellular assay performance. Fluctuations of this kind are known to those skilled in the art. Average IC50 values from several measurements are given as geometric mean values.
row,IC50,Compound
1,11 nM,"Cc1cccc(F)c1N1CCC(N2C(=O)N(Cc3ccccc3C(F)(F)F)c3nn(C4CC4)cc3C2C)CC1 (single isomer, unassigned) [Example 309]"
2,30 nM,"Cc1cccc(F)c1N1CCC(N2C(=O)N(Cc3ccccc3C(F)(F)F)c3nn(C4CC4)cc3C2C)CC1 (single isomer, unassigned) [Example 310]"
3,13 nM,"CC1c2cn(C3CC3)nc2N(Cc2ccccc2C(F)(F)F)C(=O)N1C1CCN(c2c(F)cccc2C(F)F)CC1 (single isomer, unassigned) [Example 311]"
4,72 nM,"CC1c2cn(C3CC3)nc2N(Cc2ccccc2C(F)(F)F)C(=O)N1C1CCN(c2c(F)cccc2C(F)F)CC1 (single isomer, unassigned) [Example 312]"
5,8 nM,"CC1c2cn(C)nc2N(Cc2ccccc2C(F)(F)F)C(=O)N1C1CCN(c2c(F)cccc2C(F)F)CC1 (single isomer, unassigned) [Example 314]"
6,362 nM,"CC1c2cn(C)nc2N(Cc2ccccc2C(F)(F)F)C(=O)N1C1CCN(c2c(F)cccc2C(F)F)CC1 (single isomer, unassigned) [Example 315]"
7,9 nM,"Cc1cccc(F)c1N1CCC(N2C(=O)N(Cc3ccccc3C(F)(F)F)c3n[nH]cc3C2C)CC1 (single isomer, unassigned) [Example 316]"
8,11 nM,"Cc1cccc(F)c1N1CCC(N2C(=O)N(Cc3ccccc3C3CC3)c3nn(C)cc3C2C)CC1 (single isomer, unassigned) [Example 317]"
9,131 nM,"Cc1cccc(F)c1N1CCC(N2C(=O)N(Cc3ccccc3C3CC3)c3nn(C)cc3C2C)CC1 (single isomer, unassigned) [Example 318]"
10,2 nM,"CC1c2cn(C)nc2N(Cc2ccccc2C(F)(F)F)C(=O)N1C1CCN(c2c(F)cccc2Cl)CC1 (single isomer, unassigned) [Example 319]"
11,325 nM,"CC1c2cn(C)nc2N(Cc2ccccc2C(F)(F)F)C(=O)N1C1CCN(c2c(F)cccc2Cl)CC1 (single isomer, unassigned) [Example 320]"
12,196 nM,"CC1c2cn(C)nc2N(Cc2ccccc2C2CC2)C(=O)N1C1CCN(c2c(F)cccc2Cl)CC1 (single isomer, unassigned) [Example 321]"
13,3 nM,"CC1c2cn(C)nc2N(Cc2ccccc2C2CC2)C(=O)N1C1CCN(c2c(F)cccc2Cl)CC1 (single isomer, unassigned) [Example 322]"
14,14 nM,"CC1c2cn(C)nc2N(Cc2ccccc2C2CC2)C(=O)N1C1CCN(c2c(F)cccc2C2CC2)CC1 (single isomer, unassigned) [Example 325]"
15,355 nM,"CC1c2cn(C)nc2N(Cc2ccccc2C2CC2)C(=O)N1C1CCN(c2c(F)cccc2C2CC2)CC1 (single isomer, unassigned) [Example 326]"
16,520 nM,"CC1c2nn(C3CC3)cc2N(Cc2ccccc2C(F)(F)F)C(=O)N1C1CCN(c2c(F)cccc2Cl)CC1 (single isomer, unassigned) [Example 327]"
17,10 nM,"CC1c2nn(C3CC3)cc2N(Cc2ccccc2C(F)(F)F)C(=O)N1C1CCN(c2c(F)cccc2Cl)CC1 (single isomer, unassigned) [Example 328]"
18,18 nM,"CC1c2nn(C3CC3)cc2N(Cc2ccccc2C(F)(F)F)C(=O)N1C1CCN(c2c(F)cccc2C(F)F)CC1 (single isomer, unassigned) [Example 329]"
19,1420 nM,"CC1c2nn(C3CC3)cc2N(Cc2ccccc2C(F)(F)F)C(=O)N1C1CCN(c2c(F)cccc2C(F)F)CC1 (single isomer, unassigned) [Example 330]"
20,6 nM,"COc1nccc(C)c1N1CCC(N2C(=O)N(Cc3ccccc3C(F)(F)F)c3nn(C)cc3C2C)CC1 (single isomer, unassigned) [Example 331]"

row,IC50,Compound
1,184 nM,"COc1nccc(C)c1N1CCC(N2C(=O)N(Cc3ccccc3C(F)(F)F)c3nn(C)cc3C2C)CC1 (single isomer, unassigned) [Example 332]"
2,210 nM,"CC1c2cn(C)nc2N(Cc2ccccc2C(F)(F)F)C(=O)N1C1CCN(c2c(F)cccc2C2CC2)CC1 (single isomer, unassigned) [Example 334]"
3,12 nM,"CC1c2cn(C3CC3)nc2N(Cc2ccccc2C(F)(F)F)C(=O)N1C1CCN(c2c(F)cccc2Cl)CC1 (single isomer, unassigned) [Example 335]"
4,89 nM,"CC1c2cn(C3CC3)nc2N(Cc2ccccc2C(F)(F)F)C(=O)N1C1CCN(c2c(F)cccc2Cl)CC1 (single isomer, unassigned) [Example 336]"
5,110 nM,"CC1c2cn(C3CC3)nc2N(Cc2ccccc2C2CC2)C(=O)N1C1CCN(c2c(F)cccc2Cl)CC1 (single isomer, unassigned) [Example 338]"
6,12 nM,"Cc1cccc(F)c1N1CCC(N2C(=O)N(Cc3ccccc3C3CC3)c3nn(C4CC4)cc3C2C)CC1 (single isomer, unassigned) [Example 339]"
7,67 nM,"Cc1cccc(F)c1N1CCC(N2C(=O)N(Cc3ccccc3C3CC3)c3nn(C4CC4)cc3C2C)CC1 (single isomer, unassigned) [Example 340]"
8,8 nM,"COc1nccc(C)c1N1CCC(N2C(=O)N(Cc3ccccc3C(F)(F)F)c3nn(C4CC4)cc3C2C)CC1 (single isomer, unassigned) [Example 344]"
9,35 nM,"COc1nccc(C)c1N1CCC(N2C(=O)N(Cc3ccccc3C(F)(F)F)c3nn(C4CC4)cc3C2C)CC1 (single isomer, unassigned) [Example 345]"
10,7 nM,"COc1nccc(C(F)F)c1N1CCC(N2C(=O)N(Cc3ccccc3C(F)(F)F)c3nn(C)cc3C2C)CC1 (single isomer, unassigned) [Example 346]"
11,201 nM,"COc1nccc(C(F)F)c1N1CCC(N2C(=O)N(Cc3ccccc3C(F)(F)F)c3nn(C)cc3C2C)CC1 (single isomer, unassigned) [Example 347]"
12,11 nM,"CC1c2c[nH]nc2N(Cc2ccccc2C(F)(F)F)C(=O)N1C1CCN(c2c(F)cccc2C(F)F)CC1 (single isomer, unassigned) [Example 348]"
13,918 nM,"CC1c2c[nH]nc2N(Cc2ccccc2C(F)(F)F)C(=O)N1C1CCN(c2c(F)cccc2C(F)F)CC1 (single isomer, unassigned) [Example 349]"
14,4 nM,"CC1c2c[nH]nc2N(Cc2ccccc2C(F)(F)F)C(=O)N1C1CCN(c2c(F)cccc2Cl)CC1 (single isomer, unassigned) [Example 350]"
15,784 nM,"CC1c2c[nH]nc2N(Cc2ccccc2C(F)(F)F)C(=O)N1C1CCN(c2c(F)cccc2Cl)CC1 (single isomer, unassigned) [Example 351]"
16,11 nM,"COc1nccc(C(F)F)c1N1CCC(N2C(=O)N(Cc3ccccc3C(F)(F)F)c3n[nH]cc3C2C)CC1 (single isomer, unassigned) [Example 352]"
17,997 nM,"COc1nccc(C(F)F)c1N1CCC(N2C(=O)N(Cc3ccccc3C(F)(F)F)c3n[nH]cc3C2C)CC1 (single isomer, unassigned) [Example 353]"
18,5 nM,"Cc1cccc(F)c1N1CCC(N2C(=O)N(Cc3ncccc3C(F)(F)F)c3nn(C)cc3C2C)CC1 (single isomer, unassigned) [Example 354]"
19,298 nM,"Cc1cccc(F)c1N1CCC(N2C(=O)N(Cc3ncccc3C(F)(F)F)c3nn(C)cc3C2C)CC1 (single isomer, unassigned) [Example 355]"
20,5 nM,"COc1nccc(C)c1N1CCC(N2C(=O)N(Cc3ncccc3C(F)(F)F)c3nn(C)cc3C2C)CC1 (single isomer, unassigned) [Example 356]"
